From ChEMBL document CHEMBL5465560, “Selectivity Literature for EUbOPEN Chemogenomic Library” (2024)
pIC50: −log10 of the molar value.

Columns and labels:
[1] = Selectivity interaction (NMDA Channel site assay : rat brain cortex ) EUB0000877a GRIN1
[2] = biological target: TRAF2 and NCK-interacting protein kinase (Homo sapiens) (UniProt Q9UKE5); settings: at 10 µM
[3] = biological target: Fibroblast growth factor receptor 3 (Homo sapiens, UniProt P22607); assay: Selectivity interaction (Kinase panel (Invitrogen)) EUB0000639a FGFR3; settings: at 200 nM
Sequence of Fibroblast growth factor receptor 3 (P22607 23-806 limits assumed): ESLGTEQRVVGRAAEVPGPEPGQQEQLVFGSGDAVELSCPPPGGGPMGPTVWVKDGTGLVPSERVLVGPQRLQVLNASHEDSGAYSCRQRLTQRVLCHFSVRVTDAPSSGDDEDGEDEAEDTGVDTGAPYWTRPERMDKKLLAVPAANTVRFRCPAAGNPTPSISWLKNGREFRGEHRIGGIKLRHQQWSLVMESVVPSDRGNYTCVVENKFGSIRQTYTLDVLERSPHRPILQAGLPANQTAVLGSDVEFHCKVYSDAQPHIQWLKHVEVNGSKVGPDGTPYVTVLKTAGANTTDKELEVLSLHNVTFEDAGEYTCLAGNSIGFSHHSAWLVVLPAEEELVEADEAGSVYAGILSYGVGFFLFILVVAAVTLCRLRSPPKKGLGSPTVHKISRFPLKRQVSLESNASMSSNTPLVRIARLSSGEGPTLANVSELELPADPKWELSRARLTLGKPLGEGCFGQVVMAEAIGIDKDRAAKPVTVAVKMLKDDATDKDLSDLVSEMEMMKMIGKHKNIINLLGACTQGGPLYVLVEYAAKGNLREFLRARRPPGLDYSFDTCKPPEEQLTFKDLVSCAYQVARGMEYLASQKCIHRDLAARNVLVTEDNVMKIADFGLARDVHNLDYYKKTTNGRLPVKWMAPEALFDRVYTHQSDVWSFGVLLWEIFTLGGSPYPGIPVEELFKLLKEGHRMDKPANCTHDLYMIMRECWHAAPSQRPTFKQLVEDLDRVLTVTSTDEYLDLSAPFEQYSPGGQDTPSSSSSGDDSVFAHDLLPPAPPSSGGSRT

[4] = biological target: Serine/threonine-protein kinase 38-like (Homo sapiens) (UniProt Q9Y2H1); assay: Selectivity interaction (ActivX KiNativ screen (kinase selectivity in THP-1 cell lysates)) EUB0000639a STK38L; assay type: subcellular; settings: lysate, at 0.01 µM
[5] = biological target: T1, Serine/threonine-protein kinase haspin (Homo sapiens) (UniProt Q8TF76); assay: Selectivity interaction (KinomeScan (DiscoverX)) EUB0000695a GSG2; settings: at 100 nM
T1 sequence (whole entry): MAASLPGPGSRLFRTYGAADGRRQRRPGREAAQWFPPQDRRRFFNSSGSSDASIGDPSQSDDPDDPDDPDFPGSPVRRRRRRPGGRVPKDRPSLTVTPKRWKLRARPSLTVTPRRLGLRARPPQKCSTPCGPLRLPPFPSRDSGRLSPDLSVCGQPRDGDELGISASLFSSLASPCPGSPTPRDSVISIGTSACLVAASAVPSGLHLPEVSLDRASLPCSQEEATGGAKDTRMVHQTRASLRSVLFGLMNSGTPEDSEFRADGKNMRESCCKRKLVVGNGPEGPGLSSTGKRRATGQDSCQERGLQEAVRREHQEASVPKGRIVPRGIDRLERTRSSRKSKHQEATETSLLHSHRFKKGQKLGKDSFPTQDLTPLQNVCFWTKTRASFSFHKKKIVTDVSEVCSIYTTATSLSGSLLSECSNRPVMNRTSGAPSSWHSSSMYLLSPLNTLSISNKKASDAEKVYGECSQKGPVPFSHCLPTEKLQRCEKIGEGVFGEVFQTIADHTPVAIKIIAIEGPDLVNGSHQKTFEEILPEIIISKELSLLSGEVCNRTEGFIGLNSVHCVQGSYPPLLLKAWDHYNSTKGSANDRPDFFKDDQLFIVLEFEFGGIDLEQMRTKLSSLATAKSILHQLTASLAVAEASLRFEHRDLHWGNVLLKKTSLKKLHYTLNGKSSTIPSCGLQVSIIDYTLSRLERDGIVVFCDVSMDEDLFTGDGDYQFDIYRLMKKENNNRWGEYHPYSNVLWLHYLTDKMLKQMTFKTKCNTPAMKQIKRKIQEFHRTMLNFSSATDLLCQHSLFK

[6] = biological target: Tyrosine-protein kinase Yes (Homo sapiens) (UniProt P07947); assay: Selectivity interaction (Kinase screening (Nanosyn)) EUB0000604a YES1
Sequence of Tyrosine-protein kinase Yes (Homo sapiens) (P07947 2-543 limits assumed): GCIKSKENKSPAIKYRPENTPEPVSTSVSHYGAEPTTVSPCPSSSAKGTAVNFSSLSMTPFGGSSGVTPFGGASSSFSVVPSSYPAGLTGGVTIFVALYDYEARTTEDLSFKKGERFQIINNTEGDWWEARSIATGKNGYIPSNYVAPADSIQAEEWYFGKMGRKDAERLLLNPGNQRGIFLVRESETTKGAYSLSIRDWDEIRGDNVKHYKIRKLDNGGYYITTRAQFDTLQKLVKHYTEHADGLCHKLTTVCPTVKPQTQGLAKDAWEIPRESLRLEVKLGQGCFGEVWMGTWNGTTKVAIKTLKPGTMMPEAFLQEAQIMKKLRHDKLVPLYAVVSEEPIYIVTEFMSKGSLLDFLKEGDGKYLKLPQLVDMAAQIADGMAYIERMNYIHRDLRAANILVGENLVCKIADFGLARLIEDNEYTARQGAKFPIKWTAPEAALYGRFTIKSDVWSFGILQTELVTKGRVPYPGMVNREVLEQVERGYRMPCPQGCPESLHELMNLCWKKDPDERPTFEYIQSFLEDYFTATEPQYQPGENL

[7] = biological target: Casein kinase I isoform gamma-3 (Homo sapiens) (UniProt Q9Y6M4); assay: Selectivity interaction (Ambit KINOMEscan and KiNATiv profiling in Jurkat cells) EUB0000090b CSNK1G3; assay type: cell-based; settings: at 1 µM
[8] = biological target: Calcium/calmodulin-dependent protein kinase type II subunit gamma (Homo sapiens) (UniProt Q13555); assay: Selectivity interaction (KinomeScan (DiscoverX)) EUB0001079a CAMK2G; settings: at 1 µM
[9] = biological target: T2, Serine/threonine-protein kinase Nek10 (Homo sapiens) (UniProt Q6ZWH5); assay: Selectivity interaction (KinomeScan (DiscoverX)) EUB0001079a NEK10; settings: at 1 µM
T2 sequence (whole entry): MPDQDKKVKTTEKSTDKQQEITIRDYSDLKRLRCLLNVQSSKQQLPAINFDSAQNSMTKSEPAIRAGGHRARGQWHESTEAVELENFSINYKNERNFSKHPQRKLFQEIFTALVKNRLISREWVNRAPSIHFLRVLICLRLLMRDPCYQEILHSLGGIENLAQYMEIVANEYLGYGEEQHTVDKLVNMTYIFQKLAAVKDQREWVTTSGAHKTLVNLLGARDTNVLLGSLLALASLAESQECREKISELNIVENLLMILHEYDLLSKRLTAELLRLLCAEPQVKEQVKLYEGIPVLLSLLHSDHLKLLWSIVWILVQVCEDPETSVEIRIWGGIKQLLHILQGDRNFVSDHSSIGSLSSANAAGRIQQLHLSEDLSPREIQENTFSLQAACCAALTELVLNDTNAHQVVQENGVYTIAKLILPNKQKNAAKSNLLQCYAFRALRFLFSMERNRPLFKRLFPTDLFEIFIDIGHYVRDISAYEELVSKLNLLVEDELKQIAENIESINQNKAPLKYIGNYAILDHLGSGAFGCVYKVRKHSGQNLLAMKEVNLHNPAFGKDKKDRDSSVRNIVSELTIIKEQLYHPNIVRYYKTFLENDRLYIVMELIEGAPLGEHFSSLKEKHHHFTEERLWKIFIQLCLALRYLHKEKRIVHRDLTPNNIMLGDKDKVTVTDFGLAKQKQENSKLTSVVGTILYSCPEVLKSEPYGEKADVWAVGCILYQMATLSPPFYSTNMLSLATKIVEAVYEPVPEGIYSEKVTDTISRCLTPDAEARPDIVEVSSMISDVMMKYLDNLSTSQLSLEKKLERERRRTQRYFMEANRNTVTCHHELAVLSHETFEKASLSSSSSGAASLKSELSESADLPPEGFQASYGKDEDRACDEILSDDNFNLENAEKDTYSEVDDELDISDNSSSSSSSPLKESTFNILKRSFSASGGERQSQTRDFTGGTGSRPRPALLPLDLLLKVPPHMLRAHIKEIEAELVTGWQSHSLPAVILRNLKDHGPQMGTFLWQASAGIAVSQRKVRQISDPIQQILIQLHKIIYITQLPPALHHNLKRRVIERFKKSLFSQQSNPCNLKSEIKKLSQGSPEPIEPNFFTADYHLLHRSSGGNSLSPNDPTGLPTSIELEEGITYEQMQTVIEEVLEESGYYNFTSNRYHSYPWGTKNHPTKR

[10] = biological target: Protein arginine N-methyltransferase 5 (Homo sapiens, UniProt O14744); settings: at 1 µM
Sequence of Protein arginine N-methyltransferase 5 (O14744 whole entry): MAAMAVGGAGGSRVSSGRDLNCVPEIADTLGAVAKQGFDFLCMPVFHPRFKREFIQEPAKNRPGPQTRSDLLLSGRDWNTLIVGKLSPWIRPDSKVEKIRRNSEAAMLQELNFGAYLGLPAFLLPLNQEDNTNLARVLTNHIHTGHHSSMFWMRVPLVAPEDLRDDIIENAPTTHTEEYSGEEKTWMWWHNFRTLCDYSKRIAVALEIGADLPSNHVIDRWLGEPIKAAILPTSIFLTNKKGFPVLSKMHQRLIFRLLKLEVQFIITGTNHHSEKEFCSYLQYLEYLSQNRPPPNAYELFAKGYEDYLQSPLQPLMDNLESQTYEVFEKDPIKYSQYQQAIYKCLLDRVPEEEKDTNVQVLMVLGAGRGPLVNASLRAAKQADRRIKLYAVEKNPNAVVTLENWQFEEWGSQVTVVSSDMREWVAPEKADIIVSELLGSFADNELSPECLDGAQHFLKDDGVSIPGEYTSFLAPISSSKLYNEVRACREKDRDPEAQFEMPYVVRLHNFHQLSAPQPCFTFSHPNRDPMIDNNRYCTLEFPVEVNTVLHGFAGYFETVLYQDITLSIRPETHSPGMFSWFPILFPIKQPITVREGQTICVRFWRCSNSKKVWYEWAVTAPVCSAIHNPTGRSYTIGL

[11] = biological target: Mitogen-activated protein kinase kinase kinase 21 (Homo sapiens) (UniProt Q5TCX8); assay: Selectivity interaction (Kinase panel (KiNativ target engagement assay in Jurkat cells)) EUB0001635a MAP3K21; assay type: cell-based; settings: Selectivity number of off-targets 0.0, Selectivity number of targets 233.0, Source Knowledge https://www.sciencedirect.com/science/article/pii/S2451945619300674?via%3Dihub, at 1 µM
Sequence of Mitogen-activated protein kinase kinase kinase 21 (Homo sapiens) (Q5TCX8 whole entry): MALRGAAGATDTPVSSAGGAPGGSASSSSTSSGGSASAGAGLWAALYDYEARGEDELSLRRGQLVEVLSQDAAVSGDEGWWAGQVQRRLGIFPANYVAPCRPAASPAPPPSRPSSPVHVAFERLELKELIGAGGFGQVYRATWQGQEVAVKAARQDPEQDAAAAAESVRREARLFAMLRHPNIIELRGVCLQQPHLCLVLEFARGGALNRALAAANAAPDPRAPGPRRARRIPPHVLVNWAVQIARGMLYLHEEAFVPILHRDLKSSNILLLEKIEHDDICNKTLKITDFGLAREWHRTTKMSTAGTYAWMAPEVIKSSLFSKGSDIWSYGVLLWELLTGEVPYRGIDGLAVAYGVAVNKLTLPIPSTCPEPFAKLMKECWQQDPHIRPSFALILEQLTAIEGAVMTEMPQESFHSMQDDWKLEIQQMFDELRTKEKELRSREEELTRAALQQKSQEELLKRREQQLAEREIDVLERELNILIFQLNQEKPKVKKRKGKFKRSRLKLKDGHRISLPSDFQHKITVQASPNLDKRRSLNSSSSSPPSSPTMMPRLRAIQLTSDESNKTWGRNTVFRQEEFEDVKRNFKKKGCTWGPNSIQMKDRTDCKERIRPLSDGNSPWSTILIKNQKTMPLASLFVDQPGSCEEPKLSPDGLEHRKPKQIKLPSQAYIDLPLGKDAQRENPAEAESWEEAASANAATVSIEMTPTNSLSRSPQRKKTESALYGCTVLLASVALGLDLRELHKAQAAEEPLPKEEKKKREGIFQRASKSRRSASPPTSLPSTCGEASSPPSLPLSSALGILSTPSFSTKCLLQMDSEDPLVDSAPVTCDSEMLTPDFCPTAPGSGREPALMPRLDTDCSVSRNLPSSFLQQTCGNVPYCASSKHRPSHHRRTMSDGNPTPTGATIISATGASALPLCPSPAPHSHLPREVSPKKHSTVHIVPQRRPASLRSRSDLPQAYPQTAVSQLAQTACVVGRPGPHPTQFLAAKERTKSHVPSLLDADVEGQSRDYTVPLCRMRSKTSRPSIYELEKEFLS

[12] = biological target: Serine/threonine-protein kinase 26 (Homo sapiens, UniProt Q9P289); settings: at 1 µM
Sequence of Serine/threonine-protein kinase 26 (Q9P289 2-416 limits assumed): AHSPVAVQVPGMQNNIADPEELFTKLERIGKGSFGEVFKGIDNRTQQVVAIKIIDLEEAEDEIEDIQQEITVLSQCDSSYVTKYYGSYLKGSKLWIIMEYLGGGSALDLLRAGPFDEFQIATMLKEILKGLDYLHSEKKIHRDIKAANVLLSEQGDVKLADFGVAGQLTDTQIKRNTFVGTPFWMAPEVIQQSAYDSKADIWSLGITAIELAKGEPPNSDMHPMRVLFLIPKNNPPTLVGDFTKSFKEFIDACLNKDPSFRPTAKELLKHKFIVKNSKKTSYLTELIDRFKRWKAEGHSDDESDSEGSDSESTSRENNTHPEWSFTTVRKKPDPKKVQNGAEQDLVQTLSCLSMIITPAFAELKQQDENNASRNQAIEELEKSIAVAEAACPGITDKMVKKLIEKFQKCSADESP

Sequence of TRAF2 and NCK-interacting protein kinase (Homo sapiens) (Q9UKE5 whole entry, looked up): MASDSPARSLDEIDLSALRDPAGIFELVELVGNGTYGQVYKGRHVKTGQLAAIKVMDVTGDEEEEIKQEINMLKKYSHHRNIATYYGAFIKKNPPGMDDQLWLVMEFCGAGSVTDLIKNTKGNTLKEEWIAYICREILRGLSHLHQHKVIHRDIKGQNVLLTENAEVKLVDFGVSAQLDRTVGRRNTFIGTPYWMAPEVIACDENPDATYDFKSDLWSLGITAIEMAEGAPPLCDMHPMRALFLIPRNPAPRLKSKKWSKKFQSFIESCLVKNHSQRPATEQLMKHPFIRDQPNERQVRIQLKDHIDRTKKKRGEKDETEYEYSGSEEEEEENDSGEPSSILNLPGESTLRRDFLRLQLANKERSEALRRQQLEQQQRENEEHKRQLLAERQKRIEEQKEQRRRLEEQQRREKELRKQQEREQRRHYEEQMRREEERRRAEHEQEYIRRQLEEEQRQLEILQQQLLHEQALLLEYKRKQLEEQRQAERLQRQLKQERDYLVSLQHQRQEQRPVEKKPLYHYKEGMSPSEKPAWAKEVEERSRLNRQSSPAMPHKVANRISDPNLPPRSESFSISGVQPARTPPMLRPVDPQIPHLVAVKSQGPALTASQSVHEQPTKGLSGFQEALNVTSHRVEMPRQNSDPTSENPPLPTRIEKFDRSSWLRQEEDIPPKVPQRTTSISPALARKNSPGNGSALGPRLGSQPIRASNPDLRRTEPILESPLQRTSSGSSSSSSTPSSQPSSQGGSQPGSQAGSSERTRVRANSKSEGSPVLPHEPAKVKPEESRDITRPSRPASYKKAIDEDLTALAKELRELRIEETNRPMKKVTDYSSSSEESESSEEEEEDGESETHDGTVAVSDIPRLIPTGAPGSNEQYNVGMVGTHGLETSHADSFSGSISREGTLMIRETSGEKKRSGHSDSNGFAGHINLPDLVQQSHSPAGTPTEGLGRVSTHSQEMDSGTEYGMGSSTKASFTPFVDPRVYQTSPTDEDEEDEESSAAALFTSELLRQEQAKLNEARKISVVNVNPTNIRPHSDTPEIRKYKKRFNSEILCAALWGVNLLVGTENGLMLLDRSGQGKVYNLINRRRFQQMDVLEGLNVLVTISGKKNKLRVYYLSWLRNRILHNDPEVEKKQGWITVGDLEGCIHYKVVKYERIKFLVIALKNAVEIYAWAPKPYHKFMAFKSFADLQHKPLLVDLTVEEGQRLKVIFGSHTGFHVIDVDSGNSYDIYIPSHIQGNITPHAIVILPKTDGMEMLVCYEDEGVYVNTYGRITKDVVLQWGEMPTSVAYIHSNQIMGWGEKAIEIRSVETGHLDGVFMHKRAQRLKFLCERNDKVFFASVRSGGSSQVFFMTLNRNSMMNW

Compound: CCC(=O)N1CC[C@H](Nc2ncnc3c2CN(c2cnc(OC)c(C(F)(F)F)c2)CC3)C1 [LENIOLISIB]
- pIC50 [1]: < 4.52

Compound: CCN(CC)CCCCNc1ncc2cc(-c3cc(OC)cc(OC)c3)c(NC(=O)NC(C)(C)C)nc2n1
- % of control [2]: 100%

Compound: CC[C@@H]1[C@H](F)C(=O)N[C@@H]1COc1nccc2cc(C(N)=O)c(OC)cc12 [ZIMLOVISERTIB]
- % of inhibition [3]: -0.438%
- % of inhibition [4]: 2.6%

Compound: Cc1cc(F)c(C(=O)Nc2cccc(-c3nncn3C(C)C)n2)cc1-n1cnc(C2CC2)c1
- % of control [5]: 100%

Compound: Cc1cnc(Nc2ccc(F)cc2Cl)nc1-c1c[nH]c(C(=O)N[C@H](CO)c2cccc(Cl)c2)c1
- % of inhibition [6]: 5%

Compound: CN(C)C/C=C/C(=O)Nc1ccc(C(=O)N2CCCC(Nc3ncc(Cl)c(-c4c[nH]c5ccccc45)n3)C2)cc1 (configuration not stated)
- % of control [7]: 67%

Compound: Nc1cnc(N2CCc3cc(S(=O)(=O)Nc4c(F)cc(Cl)cc4F)cc(N4CCCC4=O)c32)nc1 [TP-020n]
- % of control [8]: 100%
- % of control [9]: 100%

Compound: CNCCN1CCC(c2cc(CN(C)C(=O)c3cccc(Oc4ccccc4)c3)ccn2)CC1
- % activity [10]: > 90%

Compound: C=CC(=O)Nc1ccc(C(=O)Nc2[nH]nc3c2CN(C(=O)N[C@H](CN(C)C)c2ccccc2)C3(C)C)cc1
- % of engagement [11]: -4.1%

Compound: N#Cc1cccc(-c2c[nH]c3ncnc(N4CCOCC4)c23)c1
- % of control [12]: 7%
